Experimental data published in patent US12286437B2, “Cardiac sarcomere inhibitors” (Cytokinetics, Inc., priority 2021, dated 2025).

Columns and labels:
CYP2C8 = target: T1, CYP2C8 (Homo sapiens, UniProt P10632); assay: Time-dependent inhibition of CYP2C8 in human liver microsomes; format: in vitro ADME; settings: for (% Activity NADPH T0)/(% Activity NADPH T30): fold change; for activity at 30 min, 25 µM / activity at 0 min, 25 µM / activity at 30 min, 50 µM / activity at 0 min, 50 µM: pooled human liver microsomes, human liver microsomes; for activity at 30 min, 25 µM / activity at 30 min, 50 µM: after 30 minutes incubation, read-out: % Activity NADPH T30; for activity at 0 min, 25 µM / activity at 0 min, 50 µM: time zero, read-out: % Activity NADPH T0
T1 construct: Pooled human microsomes and selective CYP probe substrates were used; from tissue; host or cells: pooled human liver microsomes
T1 sequence (P10632 1-490): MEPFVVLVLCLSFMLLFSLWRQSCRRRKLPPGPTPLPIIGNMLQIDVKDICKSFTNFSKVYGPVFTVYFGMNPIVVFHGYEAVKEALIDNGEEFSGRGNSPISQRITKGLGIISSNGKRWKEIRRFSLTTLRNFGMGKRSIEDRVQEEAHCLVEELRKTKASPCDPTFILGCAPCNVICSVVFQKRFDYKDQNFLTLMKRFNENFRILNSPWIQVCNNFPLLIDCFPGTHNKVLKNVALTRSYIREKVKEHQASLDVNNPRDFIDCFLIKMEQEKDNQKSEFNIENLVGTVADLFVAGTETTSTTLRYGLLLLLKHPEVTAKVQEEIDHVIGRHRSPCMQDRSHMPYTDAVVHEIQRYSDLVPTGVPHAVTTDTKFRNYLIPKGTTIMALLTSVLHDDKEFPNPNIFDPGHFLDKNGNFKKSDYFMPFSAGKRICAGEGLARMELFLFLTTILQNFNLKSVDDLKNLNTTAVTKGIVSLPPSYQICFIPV
Experimental: (§1) An assessment of the time-dependent Inhibitory Potential of the test compounds against Principal Human Cytochrome P450 Isozymes using Human Liver Microsomes was also carried out using standard methods (Grimm et al, Drug Metab. Dispos., July; 37(7):1355-70. doi: 10.1124/dmd.109.026716, 2009). Pooled human microsomes and selective CYP probe substrates were used for in vitro assessment of test compounds at 25 and 50 μM as time-dependent inhibitors of […] human hepatic cytochrome P450 isozymes (CYP1A2, 2B6, 2C9, 2C19, 2D6, and 3A4). LC-MS/MS was used to quantify metabolite formation. The inhibition of each P450 enzyme in human liver microsomes was measured as the percentage decrease in the activity of marker metabolite formation as measured by LC-MS/MS compared to non-inhibited controls (=100% activity) at time zero and after 30 minutes incubation. The occurrence of any time dependent inhibition was then expressed as the fold change in enzyme activity at time zero relative to the activity after 30 minutes incubation.

[1] = Rat single dose pharmacokinetics; format: in vivo, Sprague Dawley rats; settings: male, Sprague Dawley, plasma, IV; for Vd: read-out: Vss
Experimental: Male Sprague Dawley rats were obtained from Zhejiang Vital River Laboratory Animal Technology Co., Ltd. The animals in IV group had free access to water and food. The animals in PO group were fasted overnight before dosing and provided with food 2 hours post dosing. The IV dose solution was prepared in 10% DMA/50% PG/40% HPβCD solution (40% w/v aqueous HPβCD) at a concentration of 1 mg/mL. The oral dosing suspension was prepared by suspending Test Article in 0.5% HPMC/0.1% Tween 80 in water at a concentration 0.2 mg/mL. Concentrations of IV and PO doses were measured at the end of the study. Pharmacokinetic parameters were calculated using the nominal dose values if the measured values were within 20% of the nominal values. Three rats were dosed IV via a bolus injection via caudal vein. Three rats per dose group were dosed by oral gavage. Blood samples were collected from the jugular vein cannula at predose, 5 (IV only), 15, 30 minutes, and 1, 2, 4, 6, and 24 hours post-dose. Blood volumes were replaced with an equal amount of sterile 0.9% saline. Blood samples were centrifuged and the collected plasma was stored at −80° C. for subsequent analysis. Plasma samples were analyzed for Test Article concentrations using a LC/MS/MS method. Briefly, a 50 μL aliquot of each plasma sample was mixed with 100 μL of acetonitrile that contained an internal standard. The mixture was vortexed and centrifuged. Ten (10) […] of the resulting solution was injected onto a reverse-phase C18 column and the resultant peaks detected on a LC/MS/MS equipped with a turbo ionspray ionization source. Sample concentrations below the limit of quantification (BLQ) were treated as zero for pharmacokinetic calculations. Pharmacokinetic parameters were estimated from individual animals using noncompartmental analysis of the concentration-time data (Phoenix WinNonLin software, version 64; Pharsight, Mountain View, CA). The elimination rate constant (k) was calculated as the absolute value of the slope of the linear regression of logarithm (log) of the concentration versus time for the last three data points of the concentration-time profiles. Apparent elimination half-life (t1/2) values were calculated as ln(2)/k. Area under the concentration-time curve (AUC) values were estimated using linear trapezoidal method. AUCt values were calculated from the dosing time to the last measurable concentration. AUC∞ values were calculated as the sum of the corresponding AUCt and the ratio of the last detectable concentration divided by k (AUCt-∞). Plasma clearance (CL) was calculated from Dose/AUC∞. Mean resident time (MRT) was estimated by moment analysis. Volume of distribution at steady state (Vss) was calculated from MRT∞×CL. Maximum concentration (Cmax) and time to reach Cmax (tmax) were recorded as observed. Bioavailability was calculated from the ratio of dose normalized AUC∞,po of individual rats/mean dAUC∞,iv×100% where dAUC was the dose normalized AUC value. Compounds tested were prepared in accordance with the synthetic procedures described herein.

CYP2D6 = target: T2, CYP2D6 (Homo sapiens, UniProt P10635); assay: Time-dependent inhibition of CYP2D6 in human liver microsomes; format: in vitro ADME; settings: for (% Activity NADPH T0)/(% Activity NADPH T30): fold change; for activity at 30 min, 25 µM / activity at 0 min, 25 µM / activity at 30 min, 50 µM / activity at 0 min, 50 µM: pooled human liver microsomes, human liver microsomes; for activity at 30 min, 25 µM / activity at 30 min, 50 µM: after 30 minutes incubation, read-out: % Activity NADPH T30; for activity at 0 min, 25 µM / activity at 0 min, 50 µM: time zero, read-out: % Activity NADPH T0
T2 construct: Pooled human microsomes and selective CYP probe substrates were used; from tissue; host or cells: pooled human liver microsomes
T2 sequence (P10635 whole entry): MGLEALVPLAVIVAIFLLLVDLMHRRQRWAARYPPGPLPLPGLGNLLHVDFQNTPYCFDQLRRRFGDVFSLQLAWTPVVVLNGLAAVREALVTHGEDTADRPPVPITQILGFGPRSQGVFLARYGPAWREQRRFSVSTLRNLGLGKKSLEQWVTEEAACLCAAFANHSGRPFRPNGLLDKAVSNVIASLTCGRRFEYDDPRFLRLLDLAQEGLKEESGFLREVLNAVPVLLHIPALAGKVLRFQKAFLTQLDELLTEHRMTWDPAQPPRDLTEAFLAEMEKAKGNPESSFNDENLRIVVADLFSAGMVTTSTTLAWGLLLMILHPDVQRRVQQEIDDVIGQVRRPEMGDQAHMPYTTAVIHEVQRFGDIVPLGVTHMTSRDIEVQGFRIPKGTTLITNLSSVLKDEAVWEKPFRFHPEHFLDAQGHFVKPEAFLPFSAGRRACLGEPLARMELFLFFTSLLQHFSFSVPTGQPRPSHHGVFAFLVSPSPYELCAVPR
Experimental: as §1

CYP2B6 = target: T3, CYP2B6 (Homo sapiens, UniProt P20813); assay: Time-dependent inhibition of CYP2B6 in human liver microsomes; format: in vitro ADME; settings: for (% Activity NADPH T0)/(% Activity NADPH T30): fold change; for activity at 30 min, 25 µM / activity at 0 min, 25 µM / activity at 30 min, 50 µM / activity at 0 min, 50 µM: pooled human liver microsomes, human liver microsomes; for activity at 30 min, 25 µM / activity at 30 min, 50 µM: after 30 minutes incubation, read-out: % Activity NADPH T30; for activity at 0 min, 25 µM / activity at 0 min, 50 µM: time zero, read-out: % Activity NADPH T0
T3 construct: Pooled human microsomes and selective CYP probe substrates were used; from tissue; host or cells: pooled human liver microsomes
T3 sequence (P20813 1-491): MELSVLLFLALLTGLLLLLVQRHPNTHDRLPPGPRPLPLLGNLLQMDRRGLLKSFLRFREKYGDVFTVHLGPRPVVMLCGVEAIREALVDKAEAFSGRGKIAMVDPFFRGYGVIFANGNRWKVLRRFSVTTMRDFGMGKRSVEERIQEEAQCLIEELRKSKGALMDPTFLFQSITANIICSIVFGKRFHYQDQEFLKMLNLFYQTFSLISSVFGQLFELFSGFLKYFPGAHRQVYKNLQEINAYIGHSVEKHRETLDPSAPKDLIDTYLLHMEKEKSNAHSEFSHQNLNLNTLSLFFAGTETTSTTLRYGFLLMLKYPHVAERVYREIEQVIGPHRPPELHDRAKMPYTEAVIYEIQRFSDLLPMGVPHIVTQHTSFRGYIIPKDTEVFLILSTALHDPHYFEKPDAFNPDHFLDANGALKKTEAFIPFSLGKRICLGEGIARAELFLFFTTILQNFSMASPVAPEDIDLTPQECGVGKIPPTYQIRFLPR
Experimental: as §1

C[C@H]1CC[C@H](N2CC(=O)N(Cc3ccc(F)c(Cl)c3)C3(CN(C(N)=O)C3)C2=O)CC1 [Compound 7, 5-(3-chloro-4-fluorobenzyl)-8-((1r,4r)-4-methylcyclohexyl)-6,9-dioxo-2,5,8-triazaspiro[3.5]nonane-2-carboxamide]
(% Activity NADPH T0)/(% Activity NADPH T30) (CYP2C8; CYP2C8, 25 μM): 1.1 | (% Activity NADPH T0)/(% Activity NADPH T30) (CYP2C8; CYP2C8, 50 μM): 1.1 | activity at 30 min, 25 µM (CYP2C8; CYP2C8, 25 μM): 64% | activity at 0 min, 25 µM (CYP2C8; CYP2C8, 25 μM): 72% | activity at 30 min, 50 µM (CYP2C8; CYP2C8, 50 μM): 103% | activity at 0 min, 50 µM (CYP2C8; CYP2C8, 50 μM): 109% | clearance [1]: 61.9 mL/min/kg | half-life [1]: 2.1 h | Vd [1]: 12.6 L/kg | (% Activity NADPH T0)/(% Activity NADPH T30) (CYP2D6; CYP2D6, 25 μM): 0.9 | (% Activity NADPH T0)/(% Activity NADPH T30) (CYP2D6; CYP2D6, 50 μM): 0.9 | activity at 30 min, 25 µM (CYP2D6; CYP2D6, 25 μM): 88% | activity at 0 min, 25 µM (CYP2D6; CYP2D6, 25 μM): 80% | activity at 30 min, 50 µM (CYP2D6; CYP2D6, 50 μM): 95% | activity at 0 min, 50 µM (CYP2D6; CYP2D6, 50 μM): 87% | (% Activity NADPH T0)/(% Activity NADPH T30) (CYP2B6; CYP2B6, 25 μM): 0.9 | (% Activity NADPH T0)/(% Activity NADPH T30) (CYP2B6; CYP2B6, 50 μM): 1.1 | activity at 30 min, 25 µM (CYP2B6; CYP2B6, 25 μM): 74% | activity at 0 min, 25 µM (CYP2B6; CYP2B6, 25 μM): 70% | activity at 30 min, 50 µM (CYP2B6; CYP2B6, 50 μM): 70% | activity at 0 min, 50 µM (CYP2B6; CYP2B6, 50 μM): 78%

CC(C)N1CC(=O)N(Cc2ccc(Cl)c(F)c2)C2(CN(c3cccnn3)C2)C1=O [Compound 8, 5-(4-chloro-3-fluorobenzyl)-8-isopropyl-2-(pyridazin-3-yl)-2,5,8-triazaspiro[3.5]nonane-6,9-dione]
(% Activity NADPH T0)/(% Activity NADPH T30) (CYP2C8; CYP2C8, 25 μM): 1.0 | (% Activity NADPH T0)/(% Activity NADPH T30) (CYP2C8; CYP2C8, 50 μM): 1.0 | activity at 30 min, 25 µM (CYP2C8; CYP2C8, 25 μM): 117% | activity at 0 min, 25 µM (CYP2C8; CYP2C8, 25 μM): 117% | activity at 30 min, 50 µM (CYP2C8; CYP2C8, 50 μM): 112% | activity at 0 min, 50 µM (CYP2C8; CYP2C8, 50 μM): 110% | clearance [1]: 79.9 mL/min/kg | half-life [1]: 1.2 h | Vd [1]: 5.22 L/kg | (% Activity NADPH T0)/(% Activity NADPH T30) (CYP2D6; CYP2D6, 25 μM): 0.9 | (% Activity NADPH T0)/(% Activity NADPH T30) (CYP2D6; CYP2D6, 50 μM): 1.0 | activity at 30 min, 25 µM (CYP2D6; CYP2D6, 25 μM): 98% | activity at 0 min, 25 µM (CYP2D6; CYP2D6, 25 μM): 92% | activity at 30 min, 50 µM (CYP2D6; CYP2D6, 50 μM): 91% | activity at 0 min, 50 µM (CYP2D6; CYP2D6, 50 μM): 87% | (% Activity NADPH T0)/(% Activity NADPH T30) (CYP2B6; CYP2B6, 25 μM): 0.9 | (% Activity NADPH T0)/(% Activity NADPH T30) (CYP2B6; CYP2B6, 50 μM): 0.9 | activity at 30 min, 25 µM (CYP2B6; CYP2B6, 25 μM): 97% | activity at 0 min, 25 µM (CYP2B6; CYP2B6, 25 μM): 83% | activity at 30 min, 50 µM (CYP2B6; CYP2B6, 50 μM): 100% | activity at 0 min, 50 µM (CYP2B6; CYP2B6, 50 μM): 88%

C[C@H]1CC[C@H](N2CC(=O)N(Cc3ccc(F)c(F)c3)C3(CN(C=O)C3)C2=O)CC1 [Compound 4, 5-(3,4-difluorobenzyl)-8-((1r,4r)-4-methylcyclohexyl)-6,9-dioxo-2,5,8-triazaspiro[3.5]nonane-2-carbaldehyde]
(% Activity NADPH T0)/(% Activity NADPH T30) (CYP2C8; CYP2C8, 25 μM): 1.0 | (% Activity NADPH T0)/(% Activity NADPH T30) (CYP2C8; CYP2C8, 50 μM): 1.2 | (% Activity NADPH T0)/(% Activity NADPH T30) (CYP2D6; CYP2D6, 25 μM): 1.3 | (% Activity NADPH T0)/(% Activity NADPH T30) (CYP2D6; CYP2D6, 50 μM): 1.1 | (% Activity NADPH T0)/(% Activity NADPH T30) (CYP2D6; CYP2D6, 50 μM, listed as compound 4): no change in activity | (% Activity NADPH T0)/(% Activity NADPH T30) (CYP2B6; CYP2B6, 25 μM): 1.1 | (% Activity NADPH T0)/(% Activity NADPH T30) (CYP2B6; CYP2B6, 50 μM): 1.0
